Like-named read-outs stand apart in the source and are kept apart here.
Key:
[1] = Metabolic stability in mouse liver microsomes; assay type: in vitro ADME; conditions: for CLint scaled at 1 µM / half-life at 1 µM / microsomal CLint at 1 µM: mouse; for CLint scaled at 1 µM / half-life at 1 µM: pH 7.4; for microsomal CLint at 1 µM: pH 7.4, read-out: CLint(mic)
Method: (§1) a. Preparation of phosphate buffer: The phosphate buffer powder was dissolved in 100 mL of pure water to prepare a phosphate buffer solution with a pH of 7.4 and a concentration of 100 mM, which was stored in a 4° C. refrigerator for later use.
(§2) b. All samples as well as the reference testosterone were dissolved in DMSO to obtain a 10 mM stock solution. The 10 mM stock solution was diluted to 100 μM with acetonitrile to obtain a working solution for later use.
(§3) c. Preparation of liver microsome working solution: Each of the mouse, rat and human liver microsome stock solutions (at concentration of 20 mg/mL) was taken and diluted to 0.56 mg/mL with 100 mM phosphate buffer solution to obtain the liver microsome working solution.
(§4) d. Preparation of solution: An appropriate amount of MgCl2 was weighed and used to prepare a MgCl2 solution at a concentration of 60 mM using 100 mM phosphate buffer solution. An appropriate amount of NADPH was weighed and used to prepare a NADPH solution at a concentration of 20 mM using 100 mM phosphate buffer solution. An equal volume of 60 mM MgCl2 solution was added to prepare an NADPH working solution containing 10 mM NADPH and 30 mM MgCl2. An acetonitrile solution containing 20 ng/mL tolbutamide was prepared as the stop solution.
(§5) e. Liver microsome incubation: 2 μL of each compound and the positive drug testosterone working solution were added to 178 μL of liver microsome working solution (0.56 mg/mL), mixed gently, and pre-incubated in a vibrating constant temperature water bath pot at 37° C. for 10 min. After adding 20 μL of NADPH working solution, the mixture was placed in a vibrating constant temperature water bath pot at 37° C. and timed incubation was started for 5, 10, 20, 30 and 60 min.
(§6) f. Stopping reaction: After the corresponding time of incubation, 400 μL of stop solution was added to stop the reaction, and then the sample was immediately shaken for 1 min. The sample was centrifuged at 13500 rpm for 10 min at 10° C. After centrifugation, the supernatant was removed, diluted with water according to the needs of each compound, and analyzed by LC-MS. For the 0-minute sample, the stop solution was first added and mixed evenly with the liver microsomes, and then the NADPH working solution was added. For the negative control sample, 20 μL of 30 mM MgCl2 solution was added instead of the NADPH working solution.
(§7) T1/2 and CLint(mic) were calculated by the following formula.
(§8) [formula] [formula] • CLint(mic)=0.693/T1/2/liver microsomal protein concentration during incubation (mg/mL) • CLint(ver)=CLint(mic)*liver microsomal protein (mg)/liver weight (g)*liver weight to body weight ratio
(§9) Liver microsomal protein (mg)/liver weight (g): the value is 45 in both animal and human species.
(§10) Liver weight to body weight ratio: the parameters for mice, rats and humans are 88, 40 and 20 g/kg respectively.

[2] = target: T1, PLK1 kinase (Homo sapiens, UniProt P53350); experiment: Inhibitory activity on PLK1 kinase; assay type: biochemical; conditions: for Imax: maximum effect caused by the compound at the test concentration
T1 construct: purchased Carnabio (Carna Biosciences) 05-157
T1 sequence (P53350 whole entry): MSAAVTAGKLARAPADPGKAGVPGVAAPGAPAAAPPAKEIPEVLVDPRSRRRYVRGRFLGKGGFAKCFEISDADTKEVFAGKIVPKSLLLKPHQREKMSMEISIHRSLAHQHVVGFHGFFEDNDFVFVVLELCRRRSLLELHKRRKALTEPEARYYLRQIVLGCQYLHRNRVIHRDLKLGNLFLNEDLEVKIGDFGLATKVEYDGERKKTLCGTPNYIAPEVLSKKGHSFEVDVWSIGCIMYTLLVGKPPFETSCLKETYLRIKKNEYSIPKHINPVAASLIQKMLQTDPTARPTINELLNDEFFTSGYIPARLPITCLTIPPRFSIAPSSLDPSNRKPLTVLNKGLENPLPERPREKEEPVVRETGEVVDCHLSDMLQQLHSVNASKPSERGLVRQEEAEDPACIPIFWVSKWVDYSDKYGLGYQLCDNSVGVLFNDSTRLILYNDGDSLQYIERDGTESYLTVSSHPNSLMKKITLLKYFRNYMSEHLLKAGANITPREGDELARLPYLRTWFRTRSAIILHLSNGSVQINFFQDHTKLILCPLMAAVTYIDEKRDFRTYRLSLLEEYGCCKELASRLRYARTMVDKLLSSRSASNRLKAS
Method: Detection solution PerkinElmer #TRF0218-M
Detection instrument PerkinElemer EnVision
a. Using the Echo machine, the compounds to be tested were diluted by 1:3 on a 384-well plate, and the highest concentration was 1 μM, with a total of 10 concentration points, and each concentration was tested in duplicate wells.
b. 5 μL/well of PLK1 kinase and peptide substrate mixture were added to the assay plate (containing controls).
d. The reaction was initiated by adding 5 μL/well of ATP solution;
e. The assay plate was centrifuged at 1000 rpm for about 15 seconds, a film was used to seal the assay plate which was incubated at 23° C. for a period of time;
f. A detection solution was added to all wells of the assay plate;
g. The assay plate was centrifuged at 1000 rpm for approximately 15 seconds, a film was used to seal the assay plate which was incubated at 23° C. for 60 min.
h. The assay plate was read on EnVision. The test results were analyzed using XLFIT5 software.

[3] = Metabolic stability in rat liver microsomes; assay type: in vitro ADME; conditions: for CLint scaled at 1 µM / half-life at 1 µM / microsomal CLint at 1 µM: rat; for CLint scaled at 1 µM / half-life at 1 µM: pH 7.4; for microsomal CLint at 1 µM: pH 7.4, read-out: CLint(mic)
Method: as §1, §2, §3, §4, §5, §6, §7, §8, §9, §10

[4] = tested on: HCT116 cells; experiment: Inhibitory activity on HCT116 cell proliferation (ATPlite); assay type: cell-based; conditions: Homo sapiens
Method: Cell culture medium: RPMI1640+10% FBS (GBICO)
Cell culture plate: 96-well plate (Shanghai Jingan Biotechnology Co., Ltd.)
Detection kit: ATPlite 1step Luminescence (PerkinElmer)
Detection instrument: BioTek multifunctional microplate reader
2. Test method: HCT116 cells in the logarithmic growth phase were seeded into a white-wall clear-bottom 96-well plate at a density of 720 cells per well, and cultured overnight in a 37° C., 5% CO2 incubator. […] After adding the drug, culturing was continued for 72 h in a 37° C., 5% CO2 incubator.
GraphPad Prism 7.0 was used to process the data, the cell inhibition rate curve was obtained and IC50 was calculated.

[5] = tested on: Caco-2 cells; experiment: Permeability and efflux transporter substrate evaluation in Caco-2 cells; assay type: in vitro ADME; parameters: Papp A→B at 120 min / Papp B→A at 120 min / efflux ratio at 120 min / Papp at 120 min: dose or concentration left out as unconfirmed; conditions: Caco-2
Method: (§11) The cells were cultured in a carbon dioxide incubator for 21-28 days before being used for transport experiments. During this period, the culture medium was changed every four to five days.
(§12) This project uses Hank's balanced salt buffer (pH 7.40±0.05) containing 10 mM HEPES as the transport buffer. The culture medium was removed from the culture plate and the cells were washed twice with preheated transport buffer (approximately 75 μL and 40 mL of transport buffer for each apical well and basolateral receiver plate respectively). The donor solution and receiver solution were added to the corresponding cell plate wells (75 and 250 μL for each apical and basolateral well respectively), and the bidirectional transport experiment was started (apical to basolateral (A-B) and basolateral to apical (B-A)). The test concentration of the test substance was […], and two replicate wells were made for each dosing concentration. The test concentration of Digoxin was […], with dosing bidirectionally; the test concentrations of nadolol and metoprolol were both […], and they were dosed in one direction (A-B direction), and two replicate wells were made for each of the three control compounds.
(§13) The initial donor solution is the TO sample. After adding the sample, it was mixed with the transport buffer and stop solution in a certain proportion.
(§14) All samples were vortexed, and then centrifuged at 3220×g for 20 min at 20° C. A proper volume of supernatant was transferred to a sample assay plate, and the sample was stored at 2-8° C. if it was not analyzed immediately after the plate was sealed, and LC MS/MS method was used for analysis.
(§15) The Lucifer Yellow Rejection Assay was used to test the integrity of the Caco-2 cell layer.
(§16) The following formulas were used to calculate the apparent permeability coefficient (Papp, cm/s), efflux ratio (ER), and solution recovery (%) (% Solution Recovery).
(§17) [formula] [formula] [formula] • VR is the volume of the receiver side solution (side A is 0.075 mL, side B is 0.25 mL); Area is the relative surface area of the cell monolayer (0.0804 cm^2); Time is the incubation time (7200 s); C0 is the initial concentration (nM) of the test substance at the donor side or the peak area ratio of the control compound; VD is the volume of the donor side (side A is 0.075 mL, side B is 0.25 mL); CD and CR are the final concentration (nM) of the test substance at the donor side and the receiver side respectively or the peak area ratio of the control compound; • Lucifer yellow transmittance rate (% Lucifer Yellow) is calculated using the following formula:
(§18) [formula] • RFUApical and RFUBasolateral are the relative fluorescence intensity of lucifer yellow at the apical and basolateral sides respectively. VApical and VBasolateral are the sample loading volumes at the apical and basolateral sides respectively (0.075 and 0.25 mL respectively).

[6] = as above; assay type: in vitro ADME; parameters: Papp A→B at 120 min / Papp B→A at 120 min / efflux ratio at 120 min / Papp at 120 min: dose or concentration left out as unconfirmed; conditions: human; for efflux ratio at 120 min / Papp at 120 min: Caco-2, pH 7.4; for Papp at 120 min: read-out: Classification Permeability; for Papp A→B at 120 min / Papp B→A at 120 min: pH 7.4, pH 7.40; for Papp A→B at 120 min: Caco-2, apical to basolateral; for Papp B→A at 120 min: Caco-2, basolateral to apical
Method: as §11, §12, §13, §14, §15, §16, §17, §18

[7] = Metabolic stability in human liver microsomes; assay type: in vitro ADME; conditions: for CLint scaled at 1 µM / half-life at 1 µM / microsomal CLint at 1 µM: human; for CLint scaled at 1 µM / half-life at 1 µM: pH 7.4; for microsomal CLint at 1 µM: pH 7.4, read-out: CLint(mic)
Method: as §1, §2, §3, §4, §5, §6, §7, §8, §9, §10

[8] = PLK1 kinase, highest concentration 1 μM, 10 points, read-out: IC50
[9] = HCT-116, HCT116 cells, 72 h, read-out: IC50

Row | Compound | Imax [2] [%] | Classification Efflux transporter substrate [5] | efflux ratio at 120 min [6] | Papp at 120 min [6] [×10⁻⁶ cm/s] | Papp A→B at 120 min [6] [×10⁻⁶ cm/s] | Papp B→A at 120 min [6] [×10⁻⁶ cm/s] | IC50 [2, 8] [nM] | IC50 [4, 9] [nM] | further results
1 | CN1CCN(c2ccc(OC(F)(F)F)c(Nc3ncc4ccc5c(C(N)=O)nn(C)c5c4n3)c2)CC1 [Compound 3] | 99.57 | Very unlikely or not (ERa < 2.00) | 1.32 | 0.5 to 2.5 | 0.644 | 0.851 | – | – | 60 min remaining amount [1]: 4.32%; Clearance rate [1]: High; CLint scaled at 1 µM [1]: 409 mL/min/kg; half-life at 1 µM [1]: 13.4 min; microsomal CLint at 1 µM [1]: 103 µL/min/mg; IC50 [2]: 0.714 nM; 60 min remaining amount [3]: 2.74%; Clearance rate [3]: High; CLint scaled at 1 µM [3]: 505 mL/min/kg; half-life at 1 µM [3]: 4.94 min; microsomal CLint at 1 µM [3]: 281 µL/min/mg; IC50 ([4]; HCT-116, 72 h): 93 nM; 60 min remaining amount [7]: 7.83%; Clearance rate [7]: High; CLint scaled at 1 µM [7]: 78.7 mL/min/kg; half-life at 1 µM [7]: 15.9 min; microsomal CLint at 1 µM [7]: 87.4 µL/min/mg
2 | CN1CCN(c2ccc(OC(F)(F)F)c(Nc3ncc4c(n3)-c3c(c(C(=O)NS(=O)(=O)C(F)(F)F)nn3CCO)CC4)c2)CC1 [Compound 8] | 95.96 | Likely (ERa ≥ 2.00) | > 30.3 | < 0.5 | < 0.48 | 14.5 | 14.7 | 3400 | –
3 | CN1CCN(c2ccc(OC(F)(F)F)c(Nc3ncc4c(n3)-c3c(c(C(=O)NS(=O)(=O)C5CC5)nn3CCO)CC4)c2)CC1 [Compound 9] | 72.68 | Likely (ERa ≥ 2.00) | > 25.4 | < 0.5 | < 0.254 | 6.43 | 327 | > 10000 | –
4 | CN1CCN(c2ccc(OC(F)(F)F)c(Nc3ncc4c(n3)-c3c(c(C(=O)NO)nn3CCO)CC4)c2)CC1 [Compound 10] | 99.92 | Likely (ERa ≥ 2.00) | > 51.7 | < 0.5 | < 0.48 | 24.8 | 1.16 | 49 | IC50 ([4]; HCT-116, HCT116 cells, 72 h, read-out: half inhibitory concentration): 49 nM
5 | CN1CCN(c2ccc(OC(F)(F)F)c(Nc3ncc4c(n3)-c3c(c(C(=O)NOCCO)nn3C)CC4)c2)CC1 [Compound 11] | 99.65 | Likely (ERa ≥ 2.00) | 22.1 | 0.5 to 2.5 | 1.13 | 25 | 1.8 | 205 | –
6 | CN1CCN(c2ccc(OC(F)(F)F)c(Nc3ncc4c(n3)-c3c(c(C(=O)NNC(N)=O)nn3C)CC4)c2)CC1 [Compound 12] | – | Likely (ERa ≥ 2.00) | > 56.7 | < 0.5 | < 0.264 | 15 | – | – | 60 min remaining amount [1]: 26.9%; Clearance rate [1]: Medium; CLint scaled at 1 µM [1]: 163 mL/min/kg; half-life at 1 µM [1]: 33.6 min; microsomal CLint at 1 µM [1]: 41.2 µL/min/mg; 60 min remaining amount [3]: 7.43%; Clearance rate [3]: High; CLint scaled at 1 µM [3]: 153 mL/min/kg; half-life at 1 µM [3]: 16.3 min; microsomal CLint at 1 µM [3]: 85 µL/min/mg; IC50 ([4]; HCT-116, 72 h): 861 nM; 60 min remaining amount [7]: 70.8%; Clearance rate [7]: Medium; CLint scaled at 1 µM [7]: 10.4 mL/min/kg; half-life at 1 µM [7]: 119 min; microsomal CLint at 1 µM [7]: 11.6 µL/min/mg
7 | CN1C2CCC1CN(c1ccc(OC(F)(F)F)c(Nc3ncc4c(n3)-c3c(c(C(N)=O)nn3CCO)CC4)c1)C2 [Compound 23] | 98.18 | Likely (ERa ≥ 2.00) | > 82.6 | < 0.5 | < 0.28 | 23.1 | 3.66 | 214 | –
